The values below come from PubChem BioAssay (NCI).

Assay in all cases: inhibition of tumour cell growth, NCI panel, 48 h
Assay [1] relates to CAKI-1 renal.
For assay [2], the system named is HCC-2998 colon.
Assay [3] concerns KM12 colon.
Assay [4] concerns MALME-3M melanoma.
Assay [5] concerns NCI/ADR-RES ovarian.
Assay [6] relates to RXF 393 renal.
Assay [7] has as its system SN12C renal.
In assay [8] the test system is SNB-19 CNS.
In assay [9] the test system is U251 CNS.
For assay [10], the system named is UACC-257 melanoma.

Each structure is given as a SMILES string.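 Five compound concentrations were applied to cells in 96-well plates for 48 hours; endpoints were derived by simple linear interpolation of the resulting dose-response curve. The concentration for full growth arrest is given as TGI.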 A value given as a limit tells only on which side of the number the result lay.

Regarding `COC12OC3CC4(C)C(=CC3OC(OC(C)C1O)C2O)CCC1C4CCC2(C)C(c3ccc(=O)oc3)CCC12O` (stereo not given), the TGI in assay [1] was 0.00849 µM; in [2] it was 0.00945 µM; in assay [3], 0.00739 µM; in assay [4], 0.00391 µM; in assay [5], 0.00258 µM; in [6] it was 0.0116 µM. For the same molecule, the TGI was 0.00153 µM in [7], 0.00455 µM in assay [8], 0.00277 µM in [9] and 0.0117 µM in assay [10].
Regarding `NC(=O)C[C@H](NC(=O)C1(NC(=O)[C@H](Cc2ccc(CP(=O)(O)O)cc2)NC(=O)C(=O)O)CCCCC1)C(=O)NCCCc1cccc2ccccc12`, the TGI in [1], in [2], in [3], in assay [4], in [5] and in [6] was above 10 µM throughout. The TGI in [7], in assay [8], in [9] and in [10] was above 10 µM throughout.
Consider `COc1ccc(CCNC(=O)CCCCCO)cc1OC`, for which the TGI in assay [1], in [2], in assay [3], in [5], in assay [6] and in assay [7] was above 100 µM in each case. Further, the TGI in assay [8], in assay [9] and in [10] was above 100 µM throughout.
Regarding `COc1cccc2c1-c1c(OC)cccc1SS2`, the TGI in assay [1] was above 100 µM; in assay [2], 49.3 µM; in assay [3] it was above 100 µM; in [4], 52 µM; in [5], above 100 µM; in [6] it was 63.6 µM. Besides, the TGI is 30.3 µM in assay [7], 76.7 µM in assay [8], 46.8 µM in [9] and 35.9 µM in assay [10].
As for `COP(=O)(OC)c1ccc(NCc2cc(O)ccc2O)cc1`, the TGI in assay [1] is 34.6 µM; in assay [2], 51.6 µM; in assay [3] it was 38.4 µM; in assay [4], 39.1 µM; in [5], above 84.5 µM; in assay [6], 74.9 µM. Also, the TGI in assay [7] was above 70.6 µM; in assay [8] it was above 100 µM; in assay [9], above 72.1 µM; in assay [10], above 56.1 µM.
`N/C(=N\N=C\c1cc2c(cc1Cl)OCO2)NO`: the TGI in assay [1] was above 100 µM; in assay [2] it was 97.8 µM; in assay [3], above 100 µM; in assay [4], above 100 µM; in assay [5] it was 57.2 µM; in assay [6] it was above 100 µM. Moreover, the TGI in assay [7] is above 100 µM; in assay [8], above 45.4 µM; in assay [9] it was above 100 µM; in [10], above 100 µM.
For `O=C(O)CN(CC(=O)O)Cc1ccn(-c2cccc(-n3ccc(CN(CC(=O)O)CC(=O)O)n3)n2)n1`, the TGI in [1], in assay [2], in assay [3], in [4], in assay [5] and in assay [6] was above 100 µM throughout. For the same molecule, the TGI in assay [7], in [8], in assay [9] and in assay [10] was above 100 µM throughout.
Consider `C[C@]12CC[C@H](O)CC1=CC[C@@H]1[C@@H]2CC[C@]2(C)c3nc(Cl)ccc3C[C@@H]12`, for which the TGI in assay [1], in assay [2], in assay [3], in assay [4], in [5] and in assay [6] was above 100 µM throughout. Further, the TGI in [7] is above 94.8 µM; in [8], above 100 µM; in [9], above 100 µM; in assay [10], above 100 µM.
Consider `CCNc1cc2c3c(c1)CCCN3CCC2`, for which the TGI is above 100 µM in assay [1]; 70.8 µM in [2]; 29.9 µM in assay [3]; 44.6 µM in [4]; 52.2 µM in assay [5]; above 100 µM in [6]. For the same molecule, the TGI in assay [7] was 8.63 µM; in [8] it was 33 µM; in assay [9] it was 24.7 µM; in assay [10] it was 49.5 µM.
As to `O=[N+]([O-])c1ccc2nc(/C=C(\O)c3ccccc3)c(/C=C(\O)c3ccccc3)nc2c1`, the TGI in assay [1] was above 79 µM; in assay [2] it was above 100 µM; in assay [3], above 100 µM; in assay [4] it was above 100 µM; in [5], above 89 µM; in assay [6], 38.2 µM. The TGI is above 100 µM in assay [7], above 100 µM in assay [8], 22.9 µM in [9] and above 100 µM in assay [10].
Regarding `CSC1(SC)N2Cc3ccccc3N=C2C1(c1ccccc1)c1ccccc1`, the TGI in [1] is above 100 µM; in assay [2] it was 23.2 µM; in assay [3] it was above 35.6 µM; in assay [4], 27.6 µM; in assay [5], above 67 µM; in [6], above 48.6 µM. For the same molecule, the TGI in [7] was above 64.1 µM; in [8], above 100 µM; in assay [9] it was above 58.9 µM; in [10], above 90.2 µM.
As to `Cc1oncc1NC1=CC(=O)C(=O)c2ccccc21`, the TGI is 22.6 µM in [1]; 33.4 µM in [2]; 42.1 µM in [3]; 8.69 µM in assay [4]; above 100 µM in assay [5]; 27.5 µM in assay [6]. Also, the TGI was determined as 17.1 µM in assay [7], 46.8 µM in assay [8], 17.3 µM in [9] and 9.34 µM in assay [10].
Turning to `COc1cc2c(cc1OC(=O)c1cc3ccccc3[nH]1)N=C[C@@H]1CCCN1C2=O`, the TGI was 13.8 µM in [1]; 1.12 µM in assay [2]; 3.15 µM in assay [3]; 2.24 µM in assay [4]; above 100 µM in assay [5]; 0.36 µM in assay [6]. For the same molecule, the TGI came out at 0.513 µM in [7], 3.04 µM in assay [8], 3.52 µM in assay [9] and 0.691 µM in [10].
In the case of `CC(C)(C)OC(=O)N1Cc2cc(O)ccc2C[C@H]1C(=O)O`, the TGI in assay [1], in assay [2], in [3], in assay [4], in assay [5] and in [6] was above 100 µM each time. For the same molecule, the TGI in [7], in assay [8], in [9] and in assay [10] was above 100 µM throughout.
For the molecule `CCCCC1(N=[N+]=[N-])C(=O)C2C=CC=C3c4ccccc4N(C1=O)C32` (stereo not given), the TGI is above 31.6 µM in [1]; above 31.6 µM in assay [2]; above 31.6 µM in assay [3]; above 31.6 µM in assay [4]; above 31.6 µM in assay [5]; 23.7 µM in assay [6]. Besides, the TGI in assay [7] is above 31.6 µM; in [8] it was above 31.6 µM; in assay [9], above 31.6 µM; in [10] it was 30.9 µM.
As to `CO[C@H]1C[C@H](n2cc(C)c(=O)[nH]c2=O)O[C@@H]1CO`, the TGI in assay [1], in [2], in assay [3], in assay [4], in [5] and in assay [6] was above 100 µM each time. Further, the TGI in assay [7], in assay [8], in [9] and in assay [10] was above 100 µM each time.
For `CNC(=O)c1ccccc1[S+]1c2cccc3cccc(c23)C(=O)N1C` (stereo not given), the TGI in assay [1], in assay [3], in [4], in assay [5], in assay [6] and in assay [7] was above 100 µM in each case. The TGI in [8], in assay [9] and in assay [10] was above 100 µM throughout.
Take `CC(O)c1cc2c(s1)C(=O)c1scc(C(C)O)c1C2=O` (stereo not given): the TGI is 2.74 µM in assay [1]; 3.46 µM in assay [2]; 0.35 µM in assay [4]; 1.05 µM in assay [5]; 2.57 µM in [6]; 0.44 µM in [7]. The figures for the TGI in [8], in [9] and in assay [10] were 1.66 µM, 4.07 µM and 0.356 µM, respectively.
Take `COc1ccc(-c2nnc(-c3ccncc3)o2)cc1`: the TGI in assay [1], in [4], in [5], in assay [6], in assay [7] and in [8] was above 100 µM each time. The TGI in [9] and in [10] was above 100 µM throughout.
As for `O=S(=O)(O)c1cc(Nc2ccnc3ccccc23)c2c(S(=O)(=O)O)cc(S(=O)(=O)O)cc2c1`, the TGI in assay [1], in assay [2], in assay [3], in assay [4], in assay [5] and in [6] was above 100 µM throughout. Further, the TGI in assay [7], in assay [9] and in assay [10] was above 100 µM in each case.
Take `C=CCCC(On1c(-c2ccc(Cl)cc2)csc1=S)c1ccccc1` (stereo not given): the TGI in [1] is above 100 µM; in assay [3], above 100 µM; in [4], 98.4 µM; in [5], above 100 µM; in [6] it was above 100 µM; in [7], above 100 µM. The TGI in [8], in assay [9] and in assay [10] was above 100 µM in each case.
As to `CCOC(=O)c1nc2cc(C(F)(F)F)ccc2nc1Nc1ccc(F)cc1`, the TGI in assay [1], in assay [2], in [3], in [4], in [5] and in assay [6] was above 100 µM in each case. The TGI in assay [7], in [9] and in assay [10] was above 100 µM in each case.
`COC(=O)c1c(O)ccc2c1c1c(n2Cc2ccccc2OC)C(=O)c2ccccc2C1`: the TGI was above 100 µM in assay [1]; above 100 µM in assay [3]; above 100 µM in assay [4]; above 100 µM in assay [5]; 88.1 µM in [6]; 74.9 µM in [7]. Further, the TGI in assay [8], in assay [9] and in [10] was above 100 µM in each case.
Consider `CC1=Nc2c(C#N)ncn2N=C(C)C1`, for which the TGI in assay [1], in assay [3], in assay [5], in assay [6], in [7] and in assay [9] was above 100 µM in each case. In assay [10], this molecule displayed a TGI above 100 µM.
As to `Cc1cc2c(cc1-c1cc3c(cc1C)C(C(C)C)=C(O)C(=O)/C3=C\Nc1c(C)n(C)n(-c3ccccc3)c1=O)/C(=C/Nc1c(C)n(C)n(-c3ccccc3)c1=O)C(=O)C(O)=C2C(C)C`, the TGI in assay [1], in [3], in assay [4], in assay [5], in assay [6] and in assay [7] was above 100 µM throughout. The TGI in [8], in assay [9] and in assay [10] was above 100 µM in each case.
Take `CCCC(=O)Nc1cc(/C=C/C(=O)N2CC(CCl)c3c2cc([N+](=O)[O-])c2ccccc32)n(C)c1` (stereo not given): the TGI was above 100 µM in assay [1]; above 100 µM in assay [2]; above 82.6 µM in [3]; above 100 µM in [5]; above 100 µM in assay [6]; above 100 µM in assay [7]. Besides, the TGI in assay [8], in assay [9] and in assay [10] was above 100 µM in each case.
`c1ccc(CCN2CCN=C2Cc2ccccc2)cc1`: the TGI in [2] is 38.2 µM; in assay [3], above 100 µM; in [4] it was above 100 µM; in assay [5], above 100 µM; in assay [6], above 100 µM; in [7], above 100 µM. Also, the TGI in assay [8], in assay [9] and in assay [10] was above 100 µM each time.
